Measured values from the supplement of paper PMC10307832.

Experiments:
Test in all cases: relative viability (nuclei count vs DMSO), 5 days (fraction); higher = more cells survive
HARA = tested on: HARA
How it was run: (§1)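 Relative viability was taken as the ratio of nuclei in treated wells to nuclei in vehicle wells. Lung cancer cell lines in 1536-well plates received compounds by pin tool one day after seeding, either one drug alone or a fixed anchor-drug dose plus five library-drug doses (not always all listed) in √10 steps. Nuclei were counted on 4× images after 5 days of treatment, and values are medians of duplicate plates.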

HCC-15 = tested on: HCC-15
How it was run: as §1

NCI-H1623 = tested on: NCI-H1623
How it was run: as §1

NCI-H1648 = tested on: NCI-H1648
How it was run: as §1

NCI-H1793 = tested on: NCI-H1793
How it was run: as §1

NCI-H1915 = tested on: NCI-H1915
How it was run: as §1

NCI-H1975 = tested on: NCI-H1975
How it was run: as §1

NCI-H650 = tested on: NCI-H650
How it was run: as §1

SK-LU-1 = tested on: SK-LU-1
How it was run: as §1

`COCC1(CO)C(=O)C2CCN1CC2` (stereo unspecified) [PRIMA-1MET] + COc1cccc2cc(-c3nc([C@H]4CC[C@H](C(=O)O)CC4)n4ncnc(N)c34)[nH]c12 [OSI-027] (partner 0.5 µM) was tested, and the relative viability (HARA; first compound 0.2 µM) was 0.463, the relative viability (HARA; first compound 0.6325 µM) was 0.48 and the relative viability (HARA; first compound 6.325 µM) was 0.59. It also gave a relative viability (HARA; first compound 20 µM) of 0.417, a relative viability (HCC-15; first compound 0.2 µM) of 0.534 and a relative viability (HCC-15; first compound 0.6325 µM) of 0.616. The relative viability (HCC-15; first compound 2 µM) was 0.526, the relative viability (HCC-15; first compound 6.325 µM) was 0.559 and the relative viability (HCC-15; first compound 20 µM) was 0.439. It also gave a relative viability (NCI-H1623; first compound 0.2 µM) of 0.374, a relative viability (NCI-H1623; first compound 0.6325 µM) of 0.405 and a relative viability (NCI-H1623; first compound 2 µM) of 0.445. It also gave a relative viability (NCI-H1623; first compound 6.325 µM) of 0.42, a relative viability (NCI-H1623; first compound 20 µM) of 0.303 and a relative viability (NCI-H1648; first compound 0.2 µM) of 0.24. The relative viability (NCI-H1648; first compound 0.6325 µM) was 0.252, the relative viability (NCI-H1648; first compound 2 µM) was 0.283 and the relative viability (NCI-H1648; first compound 6.325 µM) was 0.256. For the same molecule, the relative viability (NCI-H1648; first compound 20 µM) was 0.249, the relative viability (NCI-H1793; first compound 0.2 µM) was 0.255 and the relative viability (NCI-H1793; first compound 0.6325 µM) was 0.221. It also gave a relative viability (NCI-H1793; first compound 6.325 µM) of 0.298, a relative viability (NCI-H1793; first compound 20 µM) of 0.276 and a relative viability (NCI-H1915; first compound 0.2 µM) of 0.475. The relative viability (NCI-H1915; first compound 0.6325 µM) was 0.582, the relative viability (NCI-H1915; first compound 6.325 µM) was 0.443 and the relative viability (NCI-H1915; first compound 20 µM) was 0.578. It also gave a relative viability (NCI-H1975; first compound 0.2 µM) of 0.879, a relative viability (NCI-H1975; first compound 0.6325 µM) of 0.62 and a relative viability (NCI-H1975; first compound 2 µM) of 0.604. For the same molecule, the relative viability (NCI-H1975; first compound 6.325 µM) was 0.777, the relative viability (NCI-H1975; first compound 20 µM) was 0.738 and the relative viability (NCI-H650; first compound 0.2 µM) was 0.705. For the same molecule, the relative viability (NCI-H650; first compound 2 µM) was 0.5, the relative viability (NCI-H650; first compound 6.325 µM) was 0.603 and the relative viability (NCI-H650; first compound 20 µM) was 0.381. The relative viability (SK-LU-1; first compound 0.2 µM) was 0.321, the relative viability (SK-LU-1; first compound 0.6325 µM) was 0.375 and the relative viability (SK-LU-1; first compound 2 µM) was 0.256. The relative viability (SK-LU-1; first compound 6.325 µM) was 0.338 and the relative viability (SK-LU-1; first compound 20 µM) was 0.0616.
